Source: ChEMBL document CHEMBL4138123, “Design, synthesis and biological evaluation of novel pyrazolochalcones as potential modulators of PI3K/Akt/mTOR pathway and inducers of apoptosis in breast cancer cells” (Eur J Med Chem, 2017)

Tests used:
Format in all cases: functional
A549 [1] = assay: Cytotoxicity against human A549/ATCC cells assessed as cell growth at 10 uM after 48 hrs by sulforhodamine B assay relative to control; details: A549, 48 h, read-out: Activity
HCC 2998 = assay: Cytotoxicity against human HCC2998 cells assessed as cell growth at 100 uM after 48 hrs by sulforhodamine B assay relative to control; details: HCC 2998, 48 h, read-out: Activity
ACHN [2] = assay: Cytotoxicity against human ACHN cells assessed as cell growth at 100 uM after 48 hrs by sulforhodamine B assay relative to control; details: read-out: Activity
MCF7 [3] = assay: Cytotoxicity against human MCF7 cells assessed as cell growth at 10 uM after 48 hrs by sulforhodamine B assay relative to control; details: MCF7, 48 h, read-out: Activity
SK-MEL-2 = assay: Cytotoxicity against human SK-MEL-2 cells assessed as growth inhibition after 48 hrs by sulforhodamine B assay; details: SK-MEL-2, 48 h
MDA-MB-468 [4] = assay: Cytotoxicity against human MDA-MB-468 cells assessed as growth inhibition after 48 hrs by sulforhodamine B assay; details: MDA-MB-468, 48 h
SR = assay: Cytotoxicity against human SR cells assessed as cell growth at 0.01 uM after 48 hrs by sulforhodamine B assay relative to control; details: read-out: Activity
U-251 = assay: Cytotoxicity against human U251 cells assessed as cell growth at 1 uM after 48 hrs by sulforhodamine B assay relative to control; details: U-251, 48 h, read-out: Activity
MDA-MB-468 [5] = assay: Cytotoxicity against human MDA-MB-468 cells assessed as cell growth at 0.1 uM after 48 hrs by sulforhodamine B assay relative to control; details: MDA-MB-468, 48 h, read-out: Activity
OVCAR-4 [6] = assay: Cytotoxicity against human OVCAR4 cells assessed as cell growth at 10 uM after 48 hrs by sulforhodamine B assay relative to control; details: OVCAR-4, 48 h, read-out: Activity
BT-549 [7] = assay: Cytotoxicity against human BT549 cells assessed as cell growth at 100 uM after 48 hrs by sulforhodamine B assay relative to control; details: BT-549, 48 h, read-out: Activity
T47D [8] = assay: Cytotoxicity against human T47D cells assessed as cell growth at 10 uM after 48 hrs by sulforhodamine B assay relative to control; details: read-out: Activity
HT-29 = assay: Cytotoxicity against human HT-29 cells assessed as growth inhibition after 48 hrs by sulforhodamine B assay; details: HT-29, 48 h
SNB-19 = assay: Cytotoxicity against human SNB19 cells assessed as cell growth at 0.01 uM after 48 hrs by sulforhodamine B assay relative to control; details: SNB-19, 48 h, read-out: Activity
MOLT-4 = assay: Cytotoxicity against human MOLT4 cells assessed as cell growth at 0.1 uM after 48 hrs by sulforhodamine B assay relative to control; details: MOLT-4, 48 h, read-out: Activity
NCI-H226 [9] = assay: Cytotoxicity against human NCI-H226 cells assessed as cell growth at 1 uM after 48 hrs by sulforhodamine B assay relative to control; details: NCI-H226, 48 h, read-out: Activity
HOP-62 = assay: Cytotoxicity against human HOP62 cells assessed as cell growth at 100 uM after 48 hrs by sulforhodamine B assay relative to control; details: HOP-62, 48 h, read-out: Activity
PC-3 = assay: Cytotoxicity against human PC3 cells assessed as cell growth at 100 uM after 48 hrs by sulforhodamine B assay relative to control; details: PC-3, 48 h, read-out: Activity
OVCAR-5 = assay: Cytotoxicity against human OVCAR5 cells assessed as cell growth at 0.1 uM after 48 hrs by sulforhodamine B assay relative to control; details: OVCAR-5, 48 h, read-out: Activity
Hs-578T = assay: Cytotoxicity against human Hs 578T cells assessed as cell growth at 100 uM after 48 hrs by sulforhodamine B assay relative to control; details: read-out: Activity
MCF7 [10] = assay: Cytotoxicity against human MCF7 cells assessed as cell growth at 100 uM after 48 hrs by sulforhodamine B assay relative to control; details: MCF7, 48 h, read-out: Activity
NCI-H522 [11] = assay: Cytotoxicity against human NCI-H522 cells assessed as cell growth at 100 uM after 48 hrs by sulforhodamine B assay relative to control; details: NCI-H522, 48 h, read-out: Activity
RXF 393 = assay: Cytotoxicity against human RXF393 cells assessed as cell growth at 0.01 uM after 48 hrs by sulforhodamine B assay relative to control; details: RXF 393, 48 h, read-out: Activity
OVCAR-4 [12] = assay: Cytotoxicity against human OVCAR4 cells assessed as cell growth at 0.1 uM after 48 hrs by sulforhodamine B assay relative to control; details: OVCAR-4, 48 h, read-out: Activity
SK-MEL-5 = assay: Cytotoxicity against human SK-MEL-5 cells assessed as cell growth at 10 uM after 48 hrs by sulforhodamine B assay relative to control; details: SK-MEL-5, 48 h, read-out: Activity
A498 = assay: Cytotoxicity against human A498 cells assessed as growth inhibition after 48 hrs by sulforhodamine B assay; details: A498, 48 h
BT-549 [13] = assay: Cytotoxicity against human BT549 cells assessed as growth inhibition after 48 hrs by sulforhodamine B assay; details: BT-549, 48 h
ACHN [14] = assay: Cytotoxicity against human ACHN cells assessed as cell growth at 0.1 uM after 48 hrs by sulforhodamine B assay relative to control; details: read-out: Activity
A549 [15] = assay: Cytotoxicity against human A549/ATCC cells assessed as cell growth at 100 uM after 48 hrs by sulforhodamine B assay relative to control; details: A549, 48 h, read-out: Activity
Malme-3M = assay: Cytotoxicity against human MALME-3M cells assessed as cell growth at 10 uM after 48 hrs by sulforhodamine B assay relative to control; details: read-out: Activity
T47D [16] = assay: Cytotoxicity against human T47D cells assessed as cell growth at 100 uM after 48 hrs by sulforhodamine B assay relative to control; details: read-out: Activity
NCI-H522 [17] = assay: Cytotoxicity against human NCI-H522 cells assessed as growth inhibition after 48 hrs by sulforhodamine B assay; details: NCI-H522, 48 h
NCI-H460 = assay: Cytotoxicity against human NCI-H460 cells assessed as cell growth at 0.01 uM after 48 hrs by sulforhodamine B assay relative to control; details: NCI-H460, 48 h, read-out: Activity
NCI-H226 [18] = assay: Cytotoxicity against human NCI-H226 cells assessed as cell growth at 0.1 uM after 48 hrs by sulforhodamine B assay relative to control; details: NCI-H226, 48 h, read-out: Activity
ACHN [19] = assay: Cytotoxicity against human ACHN cells assessed as cell growth at 1 uM after 48 hrs by sulforhodamine B assay relative to control; details: read-out: Activity
BT-549 [20] = assay: Cytotoxicity against human BT549 cells assessed as cell growth at 1 uM after 48 hrs by sulforhodamine B assay relative to control; details: BT-549, 48 h, read-out: Activity

COc1ccc(C(=O)/C=C/c2cc(-c3ccc4c(c3)OCO4)n[nH]2)cc1OC
growth at 10 µM (A549 [1]): 3%
growth at 100 µM (HCC 2998): -86%
growth at 100 µM (ACHN [2]): -4%
growth at 10 µM (MCF7 [3]): 14%
LC50 (concentration killing 50% of cells) (SK-MEL-2): 68 µM
TGI (SK-MEL-2): 23.2 µM
GI50 (MDA-MB-468 [4]): 1.86 µM
LC50 (MDA-MB-468 [4]): 13.5 µM
TGI (MDA-MB-468 [4]): 4.52 µM
growth at 0.01 µM (SR): 90%
growth at 1 µM (U-251): 69%
growth at 0.1 µM (MDA-MB-468 [5]): 90%
growth at 10 µM (OVCAR-4 [6]): 18%
growth at 100 µM (BT-549 [7]): -90%
growth at 10 µM (T47D [8]): 22%
LC50 (HT-29): > 100 µM
TGI (HT-29): 11.3 µM
growth at 0.01 µM (SNB-19): 91%
growth at 0.1 µM (MOLT-4): 97%
growth at 1 µM (NCI-H226 [9]): 106%
growth at 100 µM (HOP-62): -80%
growth at 100 µM (PC-3): -45%
growth at 0.1 µM (OVCAR-5): 95%
growth at 100 µM (Hs-578T): -5%
growth at 100 µM (MCF7 [10]): -48%
growth at 100 µM (NCI-H522 [11]): -89%
growth at 0.01 µM (RXF 393): 98%
growth at 0.1 µM (OVCAR-4 [12]): 94%
growth at 10 µM (SK-MEL-5): 41%
LC50 (A498): 13.9 µM
TGI (A498): 4.23 µM
GI50 (BT-549 [13]): 1.97 µM
LC50 (concentration killing 50% of cells) (BT-549 [13]): 8.98 µM
TGI (BT-549 [13]): 4.21 µM
growth at 0.1 µM (ACHN [14]): 100%
growth at 100 µM (A549 [15]): -14%
growth at 10 µM (Malme-3M): 41%
growth at 100 µM (T47D [16]): -31%
LC50 (NCI-H522 [17]): 12.7 µM
TGI (NCI-H522 [17]): 4.44 µM
growth at 0.01 µM (NCI-H460): 101%
growth at 0.1 µM (NCI-H226 [18]): 93%
growth at 1 µM (ACHN [19]): 94%
growth at 1 µM (BT-549 [20]): 95%
